Read-outs that look alike come from different tables or passages of the source.

We go through 19 compounds from patent US12503475B2 (Centessa Pharmaceuticals (UK) Limited, priority 2020, dated 2025).

The assay deals with T1, human orexin type 2 receptor (hOX2R) (Homo sapiens, UniProt O43614).
T1 construct: expressed in transfected cells
T1 sequence (O43614 1-444): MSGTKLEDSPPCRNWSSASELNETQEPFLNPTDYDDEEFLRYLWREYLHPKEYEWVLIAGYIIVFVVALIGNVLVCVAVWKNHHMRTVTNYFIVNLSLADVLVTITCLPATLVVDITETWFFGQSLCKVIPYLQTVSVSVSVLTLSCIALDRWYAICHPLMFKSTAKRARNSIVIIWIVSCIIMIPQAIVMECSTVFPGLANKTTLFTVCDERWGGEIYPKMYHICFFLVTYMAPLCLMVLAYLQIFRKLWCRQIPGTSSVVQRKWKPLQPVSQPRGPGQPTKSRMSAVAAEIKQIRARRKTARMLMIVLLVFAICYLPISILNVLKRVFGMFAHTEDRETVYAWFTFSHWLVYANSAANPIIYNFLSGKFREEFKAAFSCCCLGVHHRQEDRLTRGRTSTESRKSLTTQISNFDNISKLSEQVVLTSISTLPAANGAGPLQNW
As to the kind of experiment: Measurement of orexin type 2 receptor agonist activity (FLIPR calcium fluorescence). The note with it: for Emax: CHO, read-out: hOx2 Emax (%). The class given is cell-based. In short, it runs like this: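 Agonism was read as fluorescence in cells stably expressing human OX2R. E. is the response at 10 μM relative to orexin A as full agonist (100%).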

[1] abbreviates: CHO cells expressing hOX2R, FLIPR calcium fluorescence.
Where [2] appears, read: CHO cells expressing hOX2R, FLIPR calcium fluorescence, read-out: hOx2 pEC50 (converted).

For orientation: Emax means the maximal effect, on the per cent scale that the assay sets. Consider `O=C([C@H]1CCO1)N1CC2(CC2)[C@H](NS(=O)(=O)CF)[C@@H]1Cc1cccc(-c2ccccc2)c1` [Compound 48, N-((6S,7S)-6-([1,1′-biphenyl]-3-ylmethyl)-5-((R)-oxetane-2-carbonyl)-5-azaspiro[2.4]heptan-7-yl)-1-fluoromethanesulfonamide], for which the Emax under setting [1] lay in the range of 80 to 90%.

Take `CCS(=O)(=O)N[C@@H]1[C@H](Cc2cccc(-c3ccccc3)c2F)N(C(=O)[C@H]2CCO2)CC12CC2` [Compound 53, N-((6S,7S)-6-((2-fluoro-[1,1′-biphenyl]-3-yl)methyl)-5-((R)-oxetane-2-carbonyl)-5-azaspiro[2.4]heptan-7-yl)ethanesulfonamide]: the EC50 under setting [2] is 1 to 10 nM. Besides, the Emax under setting [1] fell in the range of 90 to 100%.

With `CCNC(=O)N1CC2(CC2)[C@H](NS(C)(=O)=O)[C@@H]1Cc1cccc(-c2ccccc2)c1OC` [Compound 54, (6S,7S)—N-ethyl-6-((2-methoxy-[1,1′-biphenyl]-3-yl)methyl)-7-(methylsulfonamido)-5-azaspiro[2.4]heptane-5-carboxamide], the maximum response (Emax) lay within 80 to 90%. For the same compound, the EC50 (hOx2 pEC50, CHO cells expressing hOX2R, FLIPR calcium fluorescence) was 1 to 10 nM.

Take `CS(=O)(=O)N[C@@H]1[C@H](Cc2cccc(-c3ccccc3)c2)N(C(=O)[C@H]2CCO2)CC12CC2` [Compound 55, N-((6S,7S)-6-([1,1′-biphenyl]-3-ylmethyl)-5-((R)-oxetane-2-carbonyl)-5-azaspiro[2.4]heptan-7-yl)methanesulfonamide]: the EC50 under setting [2] was 10 to 100 nM. Moreover, the Emax under setting [1] was in the range of 90 to 100%.

For `CS(=O)(=O)N[C@@H]1[C@H](Cc2cccc(-c3ccccc3)c2F)N(C(=O)[C@H](O)C(F)(F)F)CC12CC2` [Compound 56, N-((6S,7S)-6-((2-fluoro-[1,1′-biphenyl]-3-yl)methyl)-5-((S)-3,3,3-trifluoro-2-hydroxypropanoyl)-5-azaspiro[2.4]heptan-7-yl)methanesulfonamide], under setting [2], the EC50 is 1 to 10 nM. For the same compound, under setting [1], the Emax lay in the range of 90 to 100%.

As to `CCS(=O)(=O)N[C@@H]1[C@H](Cc2cccc(-c3ccccc3)c2)N(C(=O)[C@H](O)C(F)(F)F)CC12CC2` [Compound 58, N-((6S,7S)-6-([1,1′-biphenyl]-3-ylmethyl)-5-((S)-3,3,3-trifluoro-2-hydroxypropanoyl)-5-azaspiro[2.4]heptan-7-yl)ethanesulfonamide], the EC50 under setting [2] is 1 to 10 nM. For the same compound, the Emax under setting [1] was 90 to 100%.

For `CS(=O)(=O)N[C@@H]1[C@H](Cc2cc(F)cc(-c3ccccc3)c2F)N(C(=O)[C@H]2CCO2)CC12CC2` [Compound 59, N-((6S,7S)-6-((2,5-difluoro-[1,1′-biphenyl]-3-yl)methyl)-5-((R)-oxetane-2-carbonyl)-5-azaspiro[2.4]heptan-7-yl)methanesulfonamide], the EC50 under setting [2] was 1 to 10 nM. Moreover, under setting [1], the Emax is 90 to 100%.

Consider `COC1(C(=O)N2CC3(CC3)[C@H](NS(C)(=O)=O)[C@@H]2Cc2cccc(-c3ccccc3)c2)CC1` [Compound 60, N-((6S,7S)-6-([1,1′-biphenyl]-3-ylmethyl)-5-(1-methoxycyclopropane-1-carbonyl)-5-azaspiro[2.4]heptan-7-yl)methanesulfonamide], for which the EC50 under setting [2] was 10 to 100 nM. Further, the maximal response (Emax) under setting [1] was in the range of 80 to 90%.

Turning to `CS(=O)(=O)N[C@@H]1[C@H](Cc2cccc(-c3ccccc3)c2)N(C(=O)[C@H](O)C2CC2)CC12CC2` [Compound 61, N-((6S,7S)-6-([1,1′-biphenyl]-3-ylmethyl)-5-((R)-2-cyclopropyl-2-hydroxyacetyl)-5-azaspiro[2.4]heptan-7-yl)methanesulfonamide], the EC50 under setting [2] was 1 to 10 nM. For the same compound, the Emax under setting [1] lay in the range of 90 to 100%.

Turning to `CS(=O)(=O)N[C@@H]1[C@H](Cc2cccc(-c3ccccc3)c2)N(C(=O)[C@H](O)CF)CC12CC2` [Compound 62, N-((6S,7S)-6-([1,1′-biphenyl]-3-ylmethyl)-5-((S)-3-fluoro-2-hydroxypropanoyl)-5-azaspiro[2.4]heptan-7-yl)methanesulfonamide], the EC50 under setting [2] is 10 to 100 nM. The Emax under setting [1] is 90 to 100%.

As for `COC[C@@H](O)C(=O)N1CC2(CC2)[C@H](NS(C)(=O)=O)[C@@H]1Cc1cccc(-c2ccccc2)c1` [Compound 63, N-((6S,7S)-6-([1,1′-biphenyl]-3-ylmethyl)-5-((R)-2-hydroxy-3-methoxypropanoyl)-5-azaspiro[2.4]heptan-7-yl)methanesulfonamide], the EC50 under setting [2] is 10 to 100 nM. In addition, the maximal response (Emax) under setting [1] lay in the range of 80 to 90%.

Turning to `CN(C)S(=O)(=O)N[C@@H]1[C@H](Cc2cccc(-c3ccccc3)c2F)N(C(=O)[C@H]2CCO2)CC12CC2` [Compound 64, N-((6S,7S)-6-((2-fluoro-[1,1′-biphenyl]-3-yl)methyl)-5-((R)-oxetane-2-carbonyl)-5-azaspiro[2.4]heptan-7-yl)-N,N-dimethylsulfuric diamide], under setting [2], the EC50 is 0.0794 to 1 nM. Moreover, the Emax under setting [1] was in the range of 90 to 100%.

Turning to `CNS(=O)(=O)N[C@@H]1[C@H](Cc2cccc(-c3ccccc3)c2F)N(C(=O)[C@H]2CCO2)CC12CC2` [Compound 65, N-((6S,7S)-6-((2-fluoro-[1,1′-biphenyl]-3-yl)methyl)-5-((R)-oxetane-2-carbonyl)-5-azaspiro[2.4]heptan-7-yl)-N-methylsulfuric diamide], the EC50 under setting [2] was 1 to 10 nM. Moreover, the maximal response (Emax) under setting [1] was 90 to 100%.

In the case of `CS(=O)(=O)N[C@@H]1[C@H](Cc2cccc(-c3cccc(F)c3)c2F)N(C(=O)[C@H]2CCO2)CC12CC2` [Compound 67, N-((6S,7S)-6-((2,3′-difluoro-[1,1′-biphenyl]-3-yl)methyl)-5-((R)-oxetane-2-carbonyl)-5-azaspiro[2.4]heptan-7-yl)methanesulfonamide], the EC50 under setting [2] was 1 to 10 nM. Moreover, the maximum response (Emax) under setting [1] lay within 90 to 100%.

In the case of `CS(=O)(=O)N[C@@H]1[C@H](Cc2cccc(-c3ccccc3)c2F)N(C(=O)C2(O)CCC2)CC12CC2` [Compound 68, N-((6S,7S)-6-((2-fluoro-[1,1′-biphenyl]-3-yl)methyl)-5-(1-hydroxycyclobutane-1-carbonyl)-5-azaspiro[2.4]heptan-7-yl)methanesulfonamide], the EC50 under setting [2] is 0.0794 to 1 nM. In addition, under setting [1], the maximal effect (Emax) fell in the range of 90 to 100%.

For `O=C([C@H]1CCO1)N1CC2(CC2)[C@H](NS(=O)(=O)C2CC2)[C@@H]1Cc1cccc(-c2ccccc2)c1F` [Compound 69, N-((6S 7S)-6-((2-fluoro-[1,1′-biphenyl]-3-yl)methyl)-5-((R)-oxetane-2-carbonyl)-5-azaspiro[2.4]heptan-7-yl)cyclopropanesulfonamide], under setting [2], the EC50 was 0.0794 to 1 nM. Further, under setting [1], the Emax was in the range of 90 to 100%.

As to `CS(=O)(=O)N[C@@H]1[C@H](Cc2cccc(-c3ccccc3)c2)N(C(=O)[C@H](O)C(F)F)CC12CC2` [Compound 70, N-((6S,7S)-6-([1,1′-biphenyl]-3-ylmethyl)-5-((S)-3,3-difluoro-2-hydroxypropanoyl)-5-azaspiro[2.4]heptan-7-yl)methanesulfonamide], the EC50 under setting [2] is 1 to 10 nM. The maximal response (Emax) under setting [1] fell in the range of 90 to 100%.

With `CNS(=O)(=O)N[C@@H]1[C@H](Cc2cccc(-c3ccccc3)c2)N(C(=O)[C@H]2CCO2)CC12CC2` [Compound 71], the EC50 under setting [2] was 1 to 10 nM. Also, the maximal response (Emax) under setting [1] fell in the range of 90 to 100%.

On to `Cn1ccc(S(=O)(=O)N[C@@H]2[C@H](Cc3cccc(-c4ccccc4)c3)N(C(=O)[C@H]3CCO3)CC23CC3)n1` [Compound 72, N-((6S,7S)-6-([1,1′-biphenyl]-3-ylmethyl)-5-((R)-oxetane-2-carbonyl)-5-azaspiro[2.4]heptan-7-yl)-1-methyl-1H-pyrazole-3-sulfonamide], for which the EC50 under setting [2] was 1 to 10 nM. For the same compound, the Emax under setting [1] was in the range of 90 to 100%.
